The OligoGym collection
Bases are written 5' to 3'; sugars and linkages follow in the same order, as letters with counts (s phosphorothioate, o phosphodiester; PS: all linkages phosphorothioate). The collection does not say whether C is 5-methylated. l = locked nucleic acid (LNA); d = 2'-deoxy (DNA)

Target: Tau
Test: rat primary cortical neurons, FLIPR, 25 uM ASO

Row | Sequence | calcium oscillation score
1 | CATTTTTTATTCATAACTTT (sugars l4 d12 l4, PS) | 59.4 % of control
2 | CAGCCATTTTCCATATA (sugars l3 d12 l2, PS) | 47.6 % of control
3 | TCTCTCTAGACATCTCA (sugars l2 d12 l3, PS) | 68.4 % of control
4 | TGGTCAAGGCTTTGGG (sugars l3 d10 l3, PS) | 0 % of control
5 | TCACTTTACACATTAAATTT (sugars l4 d12 l4, PS) | 62.5 % of control
6 | CATCGCTTCCAGTCCC (sugars l3 d10 l3, PS) | 39.1 % of control
7 | CTAATTACATTTTTTCTTTT (sugars l4 d12 l4, PS) | 60.1 % of control
8 | AATTAACATATTTTTACCT (sugars l4 d11 l4, PS) | 75.1 % of control
9 | CCAGCGTGATCTTCCATCAC (sugars lldllddddddddddlldll, PS) | 121 % of control
10 | CCGTGGTCTGTCTT (sugars l3 d8 l3, PS) | 20.9 % of control
11 | ATTTCCAAATTCACTTTTAC (sugars l3 d14 l3, PS) | ≥ 200 % of control
12 | CAAATCAATTCTCATTTCAA (sugars l4 d12 l4, PS) | 65.7 % of control
13 | TGGATCAGAGGGTCTG (sugars l3 d10 l3, PS) | 7.41 % of control
14 | AGTTTGTGCAAGGTC (sugars l3 d9 l3, PS) | 0 % of control
15 | CGACTTATCTATCCATCT (sugars l2 d12 l4, PS) | 45.8 % of control
16 | TAATTCATTTAATTCTCTTC (sugars l4 d12 l4, PS) | 60.1 % of control
17 | TTCCCAAATTCCTCATAATC (sugars l3 d15 l2, PS) | 69.1 % of control
18 | ATGCAGGAGTTGTAAG (sugars l3 d10 l3, PS) | 40.8 % of control
19 | TTCATCACCAAGTCCC (sugars l3 d11 l2, PS) | 51.4 % of control
20 | ATGAGCACTAACTCTAAGTA (sugars l3 d14 l3, PS) | 4.76 % of control
21 | CCCAGAATTCTAACTAT (sugars l4 d11 l2, PS) | 77 % of control
22 | TATTAATTATCTGCAC (sugars l3 d10 l3, PS) | 27.1 % of control

Row | Sequence | calcium oscillation score
23 | CTTTATTTCCAAATTCACTT (sugars l3 d14 l3, PS) | ≥ 200 % of control
24 | TCCCAAATTCCTCATAATCC (sugars l2 d16 l2, PS) | 64.5 % of control
25 | TCATCTTTTCTAGAAC (sugars l4 d8 l4, PS) | 77.3 % of control
26 | ACTTTATCCCTCCATGA (sugars l3 d11 l3, PS) | 39.6 % of control
27 | AACCAGCTAGTGGTGCCACC (sugars l3 d14 l3, PS) | 33 % of control
28 | GCCTCATAAACCTAAT (sugars l3 d9 l4, PS) | 68.2 % of control
29 | CCAGCGTGATCTTCCATCAC (sugars ldlllddddddddddlldll, PS) | 124 % of control
30 | TCACCACTTTAATCTGC (sugars l2 d12 l3, PS) | 45.7 % of control
31 | CTACTTTATTCCCTTAACAA (sugars l2 d15 l3, PS) | 86.8 % of control
32 | CTCGTCAGCTAGCGTG (sugars l3 d10 l3, PS) | 27.1 % of control
33 | CATTTTTGTCTCATTAT (sugars l4 d9 l4, PS) | 51 % of control
34 | TTCCACATTTTACAGTA (sugars l3 d10 l4, PS) | 76.6 % of control
35 | CTACTATTTACTATGCA (sugars l4 d10 l3, PS) | 78.4 % of control
36 | TTACCATCCTATCTTCT (sugars l2 d11 l4, PS) | 72.7 % of control
37 | GGTTTATGATGGATGTTGCC (sugars l3 d14 l3, PS) | 26.6 % of control
38 | TCTGGCATGGGCACG (sugars l3 d9 l3, PS) | 119 % of control
39 | CACCCACTTTCCTAATTC (sugars l3 d13 l2, PS) | 65.6 % of control
40 | CATAGCACTTACTACTT (sugars l4 d10 l3, PS) | 84.1 % of control
41 | CTCAAACTTAAATTTATTTT (sugars l4 d12 l4, PS) | 90.7 % of control
42 | CCAAAACATTCTCACCAAAC (sugars l3 d15 l2, PS) | 68.1 % of control
43 | ACTTTATTTCCAAATTCACT (sugars l5 d11 l4, PS) | 138 % of control
44 | CAACTTTCATCTACTTTTCA (sugars l3 d14 l3, PS) | 94.4 % of control

Row | Sequence | calcium oscillation score
45 | CCAGGGACCCAATCTTCGAC (sugars l3 d14 l3, PS) | 9.04 % of control
46 | AATAGCAAACAGGATA (sugars l3 d10 l3, PS) | 82.4 % of control
47 | GCACCATATTACACCA (sugars l3 d11 l2, PS) | 95.9 % of control
48 | TAACCAACTTTCATCTACTT (sugars l3 d14 l3, PS) | 47.2 % of control
49 | CTTTATTTCCAAATTCACTT (sugars l2 d1 l1 d13 l3, PS) | 132 % of control
50 | TTTTCCCAATTATTAACCC (sugars l3 d14 l2, PS) | 71.4 % of control
51 | CTCATTTTTCTCAAGCTC (sugars l3 d12 l3, PS) | 44.8 % of control
52 | GAACAGGAGAGCCATTTCCC (sugars l3 d14 l3, PS) | 7.14 % of control
53 | GCTCCAACCACACCTT (sugars l2 d11 l3, PS) | 85 % of control
54 | CAGGGACGTGGGTGATATTG (sugars l3 d14 l3, PS) | 0 % of control
55 | GATCTTAGGCTGGCCC (sugars l3 d10 l3, PS) | 90.7 % of control
56 | CACCTTTTCATGTTAAA (sugars l4 d9 l4, PS) | 97.5 % of control
57 | CAATTCTCATTTCAACCTTC (sugars l2 d14 l4, PS) | 54.1 % of control
58 | CAACTGGTTTGTAGACTATT (sugars l3 d14 l3, PS) | 6.64 % of control
59 | CGCACCAGGAACCTTCCAGA (sugars l3 d14 l3, PS) | 28.2 % of control
60 | AGTCCTAATCCTGTGC (sugars l3 d10 l3, PS) | 25.3 % of control
61 | CATCTTCCTTTAGTTTT (sugars l4 d10 l3, PS) | 50.9 % of control
62 | TCCAGTCCCGTCTTTG (sugars l3 d10 l3, PS) | 11.5 % of control
63 | CCAACTCTTTGAACACC (sugars l3 d12 l2, PS) | 75.5 % of control
64 | TCCATTAATTTAGCCA (sugars l4 d10 l2, PS) | 54.1 % of control
65 | AAGAGGGCAGCAGGCC (sugars l3 d10 l3, PS) | 73.1 % of control
66 | TCAGATTTAATTCTCAC (sugars l4 d9 l4, PS) | 50.7 % of control

Row | Sequence | calcium oscillation score
67 | AAACAGGATACAGT (sugars l3 d8 l3, PS) | 109 % of control
68 | TTTATTTCCAAATTCACTTT (sugars lldllddddddddddlldll, PS) | 106 % of control
69 | TTCACTTAGTAACCAA (sugars l4 d8 l4, PS) | 62 % of control
70 | CAGCTAAGACCCTCAGGTTT (sugars l3 d14 l3, PS) | 38.5 % of control
71 | TTCTTGTTCTAACCCCA (sugars l3 d12 l2, PS) | 68.1 % of control
72 | TATTTCCAAATTCACTTTTA (sugars lldlldddddddddldldll, PS) | 110 % of control
73 | ACTCATTTACCAATTATCTT (sugars l2 d14 l4, PS) | 60.6 % of control
74 | TTTATTAATTCATAAATGAC (sugars l3 d14 l3, PS) | 46.3 % of control
75 | CGTGATCTTCCATCAC (sugars l3 d10 l3, PS) | 127 % of control
76 | CCGTGGTCTGTCTTGG (sugars l3 d10 l3, PS) | 42.2 % of control
77 | CCACATTTGTCTTTAAC (sugars l3 d10 l4, PS) | 42.9 % of control
78 | ACCTCCTAGAACACAAC (sugars l4 d10 l3, PS) | 53.9 % of control
79 | GTCTGTCTTGGCTTTG (sugars l3 d10 l3, PS) | 0 % of control
80 | ATTAACATATTTTTACCTA (sugars l4 d11 l4, PS) | 65.3 % of control
81 | TGAGCCACACTTGGAGGTCA (sugars l3 d14 l3, PS) | 4.52 % of control
82 | TCTTGGCGGAAGACGG (sugars l3 d10 l3, PS) | 100 % of control
83 | AATCCTGTGCTTCA (sugars l3 d8 l3, PS) | 9.58 % of control
84 | ATAGATTTTACTACTC (sugars l4 d8 l4, PS) | 73.3 % of control
85 | TCCTGTGCTTCAGG (sugars l3 d8 l3, PS) | 108 % of control
86 | AACCCCATAGACATAA (sugars l4 d8 l4, PS) | 78.6 % of control
87 | CTTTATTTCCAAATTCACTT (sugars l2 d1 l1 d12 l4, PS) | 44.7 % of control
88 | TTATTTCCAAATTCACTTTT (sugars llddldldddddddddllll, PS) | 118 % of control

Row | Sequence | calcium oscillation score
89 | CCTTTTCTACTCTACTC (sugars l3 d12 l2, PS) | 70.9 % of control
90 | CGAATTACCTAACCTC (sugars l3 d9 l4, PS) | 88.2 % of control
91 | CTTTATTTCCAAATTCACT (sugars l5 d9 l5, PS) | 127 % of control
92 | CTTTTTCTTGTTCTAAC (sugars l2 d11 l4, PS) | 57.9 % of control
93 | TGATATTATCCTTTGAGCCA (sugars l3 d14 l3, PS) | 27.4 % of control
94 | ATACAGTTGGCCCTACCATA (sugars l3 d14 l3, PS) | 30.9 % of control
95 | CTTTATTTCCAAATTCACT (sugars l5 d9 l1 d1 l3, PS) | 110 % of control
96 | TTTTTTAACTCCCAACTCT (sugars l4 d13 l2, PS) | 95.7 % of control
97 | CCTCCATTAAGAACCTA (sugars l2 d12 l3, PS) | 90.1 % of control
98 | TCTTCATTCTTGCCCA (sugars l2 d12 l2, PS) | 38.1 % of control
99 | ATTTCCAAATTCACTTTTAC (sugars llddlldddddddddlldll, PS) | 122 % of control
100 | CTTACTGATCATAATC (sugars l4 d8 l4, PS) | 56.4 % of control
101 | GTCCTAATCCTGTGC (sugars l3 d9 l3, PS) | 36.5 % of control
102 | CCCAAGAGGCACAAGT (sugars l3 d10 l3, PS) | 89.5 % of control
103 | TGTCATCGCTTCCAGT (sugars l3 d10 l3, PS) | 88 % of control
104 | TTCCTGGCCATCTTATGCTG (sugars l3 d14 l3, PS) | 22 % of control
105 | CGCCCCACTTTTAATTA (sugars l2 d12 l3, PS) | 77.2 % of control
106 | TCTTTGCTTTTACTGACCAT (sugars l3 d14 l3, PS) | 29.6 % of control
107 | ACCGAACTGCGAGGAGCAGC (sugars l3 d14 l3, PS) | 0 % of control
108 | CTTACACACCACACACACT (sugars l1 d16 l2, PS) | 100 % of control
